The text below walks through data of US20150159167A1, “Plants Tolerant to HPPD Inhibitor Herbicides” (Bayer CropScience AG, priority 2009, published 2015).

Where “and” joins values, the source holds several entries; their conditions need not be identical. Equal entries are not always repeated.

In experiment [1] the test system is T0 rice plants containing FMP38e. Put plainly: Rice glasshouse trial, response to tembotrione. It counts as in vivo. As to conditions: 100 g AI/ha, 7 DAT. Here is the method: T0 rooted plantlets (either selected on phosphinothricin alone or on phosphinothricin supplemented with tembotrione) were transferred to soil in the glasshouse. Following an acclimation period, sufficiently grown plants were treated with the different HPPD inhibitor herbicides. As an example, T0 plants were sprayed with tembotrione of formulation type WP20 100 g AI/ha supplemented with ammonium sulfate and methyl ester raps oil. Seven days after the spray application, the symptoms due to the application of the herbicide were evaluated and compared the symptoms observed on wild type plants submitted to the same treatment.
The plants were classified in three categories based on the phenotype developed in response to the herbicide seven days after the treatment.

In experiment [2] the test system is Synechococcus sp. HPPD "SEQ ID No. 5". Put plainly: HPPD activity in presence of HPPD inhibitors (pI50, % inhibition). It counts as biochemical. The source says:
In this content, pI50-value means the log value of the concentration of inhibitor necessary to inhibit 50% of the enzyme activity in molar concentration.

For experiment [3], the target named is Synechococcus sp. HPPD "SEQ ID No. 5". The experiment can be described thus: HPLC assay of HPPD activity, in vitro kinetic properties. It counts as biochemical. As to conditions: 2 mM HPP. Here is the method:
Km, Vmax, and kcat values for different HPPD enzyme preparations and Ki, K1=Kon, and K−1=Koff for different HPPD inhibitors were determined using a HPLC assay for measurements of HPPD activity. […] All assays were started by the addition of HPPD enzyme to the assay mixture and stopped at a series of times between 0 and 240 s by addition of 200 μl of the reaction mixture to reaction assay tubes containing 20 μl 10% perchloric acid. Precipitated protein was pelleted by a 5 minute centrifugation at 10,000 g. […] A standard set of concentrations of HGA were used to provide a standard curve in order to calibrate the 292 nm absorbance of the HGA peak versus HGA concentration.
For Km and Vmax value determinations the initial rates of the HPPD reaction at different substrate concentrations were determined from plots of HGA formed versus time and fitted to the Michaelis-Menten equation for unireactant enzymes using the ID Business Solutions Ltd. (idbs.com) XLfit software suite. For the determination of Ki, K1=Kon, and K=−1=Koff values the time-courses of the HPPD reaction at different inhibitor concentrations were fitted to the equations for Mechanism A, competitive inhibition, for tight-binding inhibitors (Cha, S. (1975) Tight-binding inhibitors-I. Kinetic behaviour. Biochemical Pharmacology 24, 2177-2185) using the ID Business Solutions Ltd. XLfit software suite
In below given table 1, “Km” (Michaelis-Menten constant) means the kinetic parameter that is used to characterise an enzyme, and it is defined as the concentration of substrate that permits half maximal rate of the reaction. Km is further defined as the substrate concentration at which the reaction rate reaches half of its maximum value (Vmax/2) where Vmax has the meaning of being the maximum velocity of the reaction.
Kon=K1 equals the association rate constant of the […] binding and Koff=K−1 equals the rate constant of the enzyme-inhibitor complex dissociation. Ki defines the inhibition constant.

For experiment [4], the system named is T1 tobacco plants containing FMP38e (Synechococcus sp. HPPD FMP38). The experiment can be described thus: Glasshouse trial, herbicidal damage after spray. It counts as in vivo, Nicotiana tabacum. As to conditions: 7 DAT, 100 gAI/ha spray. Here is the method:
T0 Tobacco plants containing either the gene from Arabidopsis coding for HPPD or the gene FMP38e from Synechococcus sp. coding for FMP38 HPPD, mentioned above (Example3), were transferred to the glasshouse (28/20° C.), to develop further and produce seeds. Those seeds were harvested and put on soil (ED73 mixed with sand and osmocote Pro) to germinate in the glasshouse (28/20° C.). Three to four weeks later, plantlets were transferred to single pots containing the soil mentioned above. Two weeks later, plants of a size 4-6 cm diameter were sprayed with either • tembotrione at 100 gAI/ha prepared from a WP20 (wettable powder 20%) formulation supplemented with ammonium sulfate and methyl ester raps oil, or • isoxaflutole at 100 gAI/ha prepared from a WP20 formulation supplemented with ammonium sulfate and methyl ester raps oil, or • “blind formulation” made from a WP20 formulation without active ingredient (AI) supplemented with ammonium sulfate and methyl ester raps oil, and were then transferred to a growth chamber with adequate light conditions (20000 Lux). […]

As to `CS(=O)(=O)c1ccc(C(=O)C2C(=O)CCCC2=O)c(Cl)c1COCC(F)(F)F` [Tembotrione, 2-[2-chloro-4-(methylsulfonyl)-3-[(2,2,2,-tri-fluoroethoxy)methyl]benzoyl]-1,3-cyclo-hexanedione], in experiment [1], the “Class I (no injuries), number of plants” value is 9; the “Class II (injury: 10-40%), number of plants” value turned out to be 8; the “Class III (injury: 41-100%), number of plants” value is 8. Also, in experiment [2] (2 mM HPP, 3 minutes incubation), the pI50 turned out to be 5.6. Besides, the percentage of inhibition in experiment [2] (5.0 × 10^−6 M inhibitor, compared to activity in absence of inhibitor) came to 79%. Further, in experiment [3], the affinity, expressed as Ki, was 1200 nM; the “k1 (Kon)” value worked out at 41000 M⁻¹ s⁻¹; the “k−1 (Koff)” value was 0.05 s⁻¹. In addition, the “% injury” value in experiment [4] (line 34, one value per plant) amounted to 30%. In addition, the “% injury” value in experiment [4] (line 39, one value per plant) was 0% and 5%.
